Like-named read-outs stand apart in the source and are kept apart here.
Key:
[1] = system: exsheathed third-stage larvae (xL3s) of Haemonchus contortus; test: Primary screen, H. contortus larval development and phenotype (microscopy)
Description: An established high-throughput phenotypic screening assay was used to test the anthelmintic activity of compounds on H. contortus xL3s. Compounds were assessed for motility inhibition at a concentration of 20 µM in LB*. […] A solution of LB* + 1% (v/v) DMSO was used as a negative control. Test compounds were distributed amongst one flat-bottom, 384-well microplate (cat no. 3860; Corning, Corning, NY, USA). Eighty xL3s of H. contortus in 20 µl of LB* were added to each well to give a final volume of 40 µl. The plate was then placed in a CO2 incubator (10% [v/v] CO2, 38 °C, > 90% humidity). At 90 h, worm activity was captured using a WMicroTracker ONE unit (Phylumtech, Sunchales, Santa Fe, Argentina). Over a period of 15 min, disturbance of an infrared beam in individual wells was recorded as a worm ‘activity count’. Activity counts were then normalised to the positive and negative controls using the GraphPad Prism program (v.9.1.0 GraphPad Software, San Diego, CA, USA). The screening plate was then returned to the incubator (10% [v/v] CO2, 38 °C, > 90% humidity) for an additional 72 h. At 168 h, worms were fixed with 40 µl of Lugol solution (Sigma-Aldrich, St. Louis, MO, USA). Compounds were then assessed (microscopically) for inhibition of larval development and/or induction of a non-wild-type phenotype in H. contortus worms. […] The performance of the assay was monitored using the Z′-factor [58] calculated using data for the negative (DMSO) and positive (M-666) control compounds on individual plates.

[2] = system: H. contortus xL3s; test: H. contortus dose-response assay, xL3 motility; parameters: species or system Haemonchus contortus; details: xL3s, 90 h of incubation; for IC50: read-out: IC50, H. contortus larval motility inhibition
Description: The dose–response assay for H. contortus followed a well-established protocol; it was employed to evaluate the potency of hit compounds against this nematode. Test compounds were assessed individually for an effect on the motility of xL3s (10-point, twofold serial dilution in LB*, 40–0.16 μM). One compound, monepantel (prepared in the same manner as the test compounds), was used as a positive control. A solution of LB* was used as a negative control. The test and positive-control compounds were arrayed in triplicate across individual flat-bottom 96-well microplates, with six wells on each plate containing the negative control. Three hundred xL3s of H. contortus in 50 μl of LB* were added to each well to give a final volume of 100 μl. Plates were then placed in a CO2 incubator (10% [v/v] CO2, 38 °C, > 90% humidity). […] Over a period of 15 min, disturbance of an infrared beam in individual wells was recorded as a worm activity count. Raw activity counts for each well were normalised to the negative controls. The compound concentrations were log10-transformed and fitted using a variable-slope four-parameter equation, using the ordinary least squares fit model, employing GraphPad Prism (v.9.1.0). Larval development was established at 168 h of incubation with compound, as described previously. The development inhibition and phenotypes of larvae were examined microscopically. A one-way analysis of variance (ANOVA) with a Tukey multiple comparison test or an unpaired t-test was used to establish statistically significant differences in larval motility or development.

[3] = system: H. contortus larvae; test: H. contortus dose-response assay, larval development; parameters: species or system Haemonchus contortus; details: 168 h of incubation, read-out: IC50, inhibition of H. contortus larval development
Description: The dose–response assay for H. contortus followed a well-established protocol; it was employed to evaluate the potency of hit compounds against this nematode. Test compounds were assessed individually for an effect on the motility of xL3s (10-point, twofold serial dilution in LB*, 40–0.16 μM). One compound, monepantel (prepared in the same manner as the test compounds), was used as a positive control. A solution of LB* was used as a negative control. The test and positive-control compounds were arrayed in triplicate across individual flat-bottom 96-well microplates, with six wells on each plate containing the negative control. Three hundred xL3s of H. contortus in 50 μl of LB* were added to each well to give a final volume of 100 μl. Plates were then placed in a CO2 incubator (10% [v/v] CO2, 38 °C, > 90% humidity). After 168 h of incubation, worm activity was captured using a WMicroTracker ONE unit. Over a period of 15 min, disturbance of an infrared beam in individual wells was recorded as a worm activity count. Raw activity counts for each well were normalised to the negative controls. The compound concentrations were log10-transformed and fitted using a variable-slope four-parameter equation, using the ordinary least squares fit model, employing GraphPad Prism (v.9.1.0). Larval development was established at 168 h of incubation with compound, as described previously. The development inhibition and phenotypes of larvae were examined microscopically. A one-way analysis of variance (ANOVA) with a Tukey multiple comparison test or an unpaired t-test was used to establish statistically significant differences in larval motility or development.

[4] = system: C. elegans young adults; test: C. elegans dose-response assay, motility; parameters: species or system Caenorhabditis elegans; details: 40 h of incubation
Description: The dose–response assay for C. elegans followed a well-established protocol and was employed to evaluate the potency of hit compounds against this nematode. Test and positive-control compounds as well as negative controls were prepared in 96-well microplates (cf.). One hundred C. elegans in 50 μl of LB* were added to each well to give a final volume of 100 μl. Plates were then placed in an incubator at 20 °C for 40 h. At 40 h, worm activity was captured using a WMicroTracker ONE unit. Raw activity counts for each well were normalised to the negative controls. The compound concentrations were log10-transformed and fitted using a variable-slope four-parameter equation, using the ordinary least squares fit model, employing GraphPad Prism (v.9.1.0). A one-way ANOVA with a Tukey multiple comparison test or an unpaired t-test was used to establish statistically significant differences in larval motility.

[5] = system: adult females of H. contortus; test: Motility of H. contortus adult females (video scoring); parameters: species or system Haemonchus contortus; details: 40 μM
Description: The activity of two test compounds was assessed on adult female specimens of H. contortus in an established assay. The compound was added in triplicate to the wells of a 24-well plate (Corning, USA) at a concentration of 40 μM in 500 μl of RPMI*. Two positive-control compounds, monepantel and moxidectin, and a negative control containing 1% (v/v) DMSO only were included in triplicate on the same plate. Three adult females were added to each of the triplicate wells containing either the test compound or the controls and placed in a CO2 incubator (10% [v/v] CO2, 38 °C, > 90% relative humidity) for 24 h. A video recording (30 s) of each well was taken at 3 h, 6 h, 12 h and 24 h during the total incubation period to assess the reduction in worm motility, which was scored as 3 (‘good’), 2 (‘low’), 1 (‘very low’) or 0 (‘no movement’; cf.). For each test or control compound, the motility scores for each of the triplicate wells were calculated, normalised with reference to the negative control (100% motility) and recorded as a percentage. A two-way ANOVA with a Tukey multiple comparison test was used to establish statistically significant differences in worm motility.

[6] = system: rat hepatoma (FAO cell line) cells; details: cited from earlier work
[7] = H. contortus larvae; 20 µM; 168 h
[8] = Haemonchus contortus, 168 h, H. contortus, 20 µM, read-out: Larval development inhibition, %

For `CO/N=C1\C[C@]2(C[C@@H]3C[C@@H](C/C=C(\C)C[C@@H](C)/C=C/C=C4\CO[C@@H]5[C@H](O)C(C)=C[C@@H](C(=O)O3)[C@]45O)O2)O[C@H](/C(C)=C/C(C)C)[C@H]1C` [Moxidectin, moxidectin], the “Larval development inhibition; %” value ([1]; H. contortus; 20 µM; 168 h) was 100%.
In the case of `C=C(C)[C@H]1Cc2c(ccc3c2O[C@@H]2COc4cc(OC)c(OC)cc4[C@@H]2C3=O)O1` [MMV002519, rotenone], the Abnormal phenotype [1, 7] is reported as “Str”, the “Induction of an abnormal phenotype (in words)” value (“Induction” for short) [1, 7] is reported as “induced an abnormal phenotype” and the inhibition at 20 µM ([1]; Haemonchus contortus, 168 h, read-out: Larval development inhibition; %) is reported as 100%.
With `CO[C@H]1C[C@H](O[C@@H]2/C(C)=C/C[C@@H]3C[C@@H](C[C@]4(CC[C@H](C)[C@@H](C5CCCCC5)O4)O3)OC(=O)[C@@H]3C=C(C)/C(=N/O)[C@H]4OC/C(=C\C=C\[C@@H]2C)[C@]43O)O[C@@H](C)[C@@H]1O` [MMV002231, selamectin] the Abnormal phenotype [1, 7] was “Cur” and the inhibition at 20 µM [1, 8] was no less than 90%.
With `C[C@](C#N)(COc1cc(C#N)ccc1C(F)(F)F)NC(=O)c1ccc(SC(F)(F)F)cc1` [Monepantel, monepantel] the Abnormal phenotype [1, 7] was “Coi”, the inhibition at 20 µM [1, 8] was 100% and the IC50 ([2]; Haemonchus contortus) was 330 ± 120 nM. For the same molecule, the “Maximum motility inhibition (MMI), H. contortus larvae” value [2] was 95%, the IC50 ([3]; Haemonchus contortus) was 260 ± 30 nM and the “Maximum motility inhibition (MMI), C. elegans” value [4] was 95%. The IC50 ([4]; Caenorhabditis elegans, read-out: IC50, C. elegans young adult motility) was 30 ± 10 nM, the “Reduction of motility of adult females of H. contortus” value (“Reduction” below) ([5]; 3 h) was ~ 0% and the “Reduction” value ([5]; 6 h) was roughly 23%. For the same molecule, the “Reduction” value ([5]; 12 h) was roughly 66% and the “Reduction” value ([5]; 24 h) was roughly 100%.
For abamectin [MMV1577454], the Abnormal phenotype [1, 7] was “Str”.
In the case of `O=C(Nc1ccc(Cl)c(C(F)(F)F)c1)Nc1ccc(Cl)c(C(F)(F)F)c1` [MMV027339], the “Induction” value [1, 7] is reported as “did not inhibit development or induce an abnormal phenotype” and the IC50 [2] is reported as greater than 40000 nM.
For `CCOCn1c(-c2ccc(Cl)cc2)c(C#N)c(Br)c1C(F)(F)F` [MMV1577458, chlorfenapyr], the Abnormal phenotype [1, 7] was “Cur”, the “Induction” value [1, 7] was “induced an abnormal phenotype” and the inhibition at 20 µM [1, 8] was 100%.
With `CCc1nn(C)c(C(=O)NCc2ccc(Oc3ccc(C)cc3)cc2)c1Cl` [MMV688934, tolfenpyrad] the Abnormal phenotype [1, 7] was “Str”, the “Induction” value [1, 7] was “induced an abnormal phenotype” and the inhibition at 20 µM ([1]; Haemonchus contortus; H. contortus; 20 µM; 168 h; read-out: Larval development inhibition; %) was 100%. The “Respiration in FAO cells” value [6] was “inhibit respiration”.
In the case of `CO/N=C1\C[C@]2(C[C@@H]3C[C@@H](C/C=C(\C)C[C@@H](C)/C=C/C=C4\CO[C@@H]5[C@H](O)C(C)=C[C@@H](C(=O)O3)[C@]45O)O2)O[C@H](/C(C)=C/C(C)C)[C@H]1C` [MMV1633828, moxidectin], the inhibition at 20 µM [1, 8] is reported as no less than 90%.
For `COc1cc(/C=N/c2c(SC(F)(F)F)c(C#N)nn2-c2c(Cl)cc(C(F)(F)F)cc2Cl)ccc1O` [MMV1794214], the “Induction” value [1, 7] was “did not inhibit development or induce an abnormal phenotype”, the “Maximum motility inhibition (MMI), H. contortus larvae” value [2] was 70% and the IC50 [2] was 4500 ± 1100 nM. For the same molecule, the IC50 [3] was greater than 40000 nM, the “Reduction” value ([5]; 3 h) was ~ 0% and the “Reduction” value ([5]; 6 h) was ~ 0%. The “Reduction” value ([5]; 12 h) was roughly 23% and the “Reduction” value ([5]; 24 h) was roughly 15%.
